# Measurements: patent publication US9586956B2, “Isoquinoline and naphthyridine derivatives” (Genentech, Inc., priority 2012, dated 2017)
# Target: T1, purified human MAP4K4 kinase domain (Homo sapiens, UniProt O95819)
# T1 construct: purified human MAP4K4 kinase domain
# Assay: MAP4K4 Inhibition Assay Protocol No. 1 (Caliper LabChip, moesin-derived peptide phosphorylation)
# Format: biochemical
# Conditions: Assay 1; 1 nM enzyme, 10 uM ATP, 45 min
# Experimental: The kinase activity of purified human MAP4K4 kinase domain was measured by monitoring the phosphorylation of a peptide substrate derived from moesin protein (Leu-Gly-Arg-Asp-Lys-Tyr-Lys-Thr-Leu-Arg-Gln-Ile-Arg-Gln) fluorescently labeled on the N-terminus with 5-carboxyfluorescein using the Caliper LabChip technology (Caliper Life Sciences, Hopkinton, Mass.). To determine inhibition constants (IC50), compounds were serially diluted in DMSO and added to 10 uL kinase reactions containing 1 nM purified MAP4K4 enzyme, 1 uM peptide substrate, 10 uM ATP, 10 mM MgCl2, 1 mM EGTA, 50 mM Hepes pH 7.2, 1 mM DTT, 0.01% Triton X-100, and 2% DMSO. Reactions were incubated at room temperature in Perkin Elmer Proxiplates for 45 minutes and stopped by the addition of 10 uL of an EDTA-containing solution (50 mM Hepes pH 7.2, 40 mM EDTA, 0.02% Triton X-100). The fraction of phosphorylated peptide was determined as a fraction of total peptide substrate using the Caliper Lab Chip 3000 according to the manufacturer's instructions. IC50 values were determined using the four-parameter non-linear fit model.
# T1 sequence (O95819 25-289 limits assumed): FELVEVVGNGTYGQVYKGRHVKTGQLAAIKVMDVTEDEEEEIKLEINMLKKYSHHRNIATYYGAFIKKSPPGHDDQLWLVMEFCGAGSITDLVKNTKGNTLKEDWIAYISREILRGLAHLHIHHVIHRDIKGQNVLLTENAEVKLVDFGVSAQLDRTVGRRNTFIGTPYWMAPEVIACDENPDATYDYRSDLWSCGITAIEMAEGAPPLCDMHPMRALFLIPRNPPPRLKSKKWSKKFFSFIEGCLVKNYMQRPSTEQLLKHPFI
row,SMILES,IC50
1,"Nc1ncc(C(=O)NCC(=O)N2CCOCC2)c2ccc(-c3cccc(F)c3)cc12 [Example 81, 1-amino-7-(3-fluorophenyl)-N-(2-morpholino-2-oxo-ethyl)isoquinoline-4-carboxamide]",0.138 µM
2,"Nc1ncc(C(=O)NCCN2CCNC2=O)c2ccc(-c3cccc(F)c3)cc12 [Example 82, 1-amino-7-(3-fluorophenyl)-N-[2-(2-oxoimidazolidin-1-yl)ethyl]isoquinoline-4-carboxamide]",0.148 µM
3,"CN1CCC(Oc2ccc(NC(=O)c3cnc(N)c4cc(-c5cccc(F)c5)ccc34)cc2)CC1 [Example 86, 1-amino-7-(3-fluorophenyl)-N-[4-[(1-methyl-4-piperidyl)oxy]phenyl] isoquinoline-4-carboxamide]",0.0081 µM
4,"Nc1ncc(C(=O)NCc2cnccn2)c2ccc(-c3cccc(F)c3)cc12 [Example 89, 1-amino-7-(3-fluorophenyl)-N-(pyrazin-2-ylmethyl) isoquinoline-4-carboxamide]",0.231 µM
5,"COc1ccccc1CNC(=O)c1cnc(N)c2cc(-c3cccc(F)c3)ccc12 [Example 90, 1-amino-7-(3-fluorophenyl)-N-[(2-methoxyphenyl)methyl]isoquinoline-4-carboxamide]",0.141 µM
6,"COc1cccc(CNC(=O)c2cnc(N)c3cc(-c4cccc(F)c4)ccc23)c1 [Example 91, 1-amino-7-(3-fluorophenyl)-N-[(3-methoxyphenyl)methyl]isoquinoline-4-carboxamide]",0.0511 µM
7,"CC(C)CNC(=O)c1cnc(N)c2cc(-c3cccc(F)c3)ccc12 [Example 92, 1-amino-7-(3-fluorophenyl)-N-isobutyl-isoquinoline-4-carboxamide]",0.0335 µM
8,"Nc1ncc(C(=O)NCc2ccncc2)c2ccc(-c3cccc(F)c3)cc12 [Example 93, 1-amino-7-(3-fluorophenyl)-N-(4-pyridylmethyl) isoquinoline-4-carboxamide]",0.0645 µM
9,"Cc1cc(NC(=O)c2cnc(N)c3cc(-c4cccc(F)c4)ccc23)ccn1 [Example 95, 1-amino-7-(3-fluorophenyl)-N-(2-methyl-4-pyridyl) isoquinoline-4-carboxamide]",0.0391 µM
10,"Nc1ncc(C(=O)NCc2ccccn2)c2ccc(-c3cccc(F)c3)cc12 [Example 96, 1-amino-7-(3-fluorophenyl)-N-(2-pyridylmethyl) isoquinoline-4-carboxamide]",0.179 µM
11,"CCNC(=O)c1cnc(N)c2cc(-c3cccc(F)c3)ccc12 [Example 99, 1-amino-N-ethyl-7-(3-fluorophenyl)isoquinoline-4-carboxamide]",0.0257 µM
12,"Nc1ncc(C(=O)NCCCO)c2ccc(-c3cccc(F)c3)cc12 [Example 100, 1-amino-7-(3-fluorophenyl)-N-(3-hydroxypropyl) isoquinoline-4-carboxamide]",0.0395 µM
13,"Nc1ncc(C(=O)NCC2CC2)c2ccc(-c3cccc(F)c3)cc12 [Example 101, 1-amino-N-(cyclopropylmethyl)-7-(3-fluorophenyl) isoquinoline-4-carboxamide]",0.0399 µM
14,"CC(C)NC(=O)c1cnc(N)c2cc(-c3cccc(F)c3)ccc12 [Example 102, 1-amino-7-(3-fluorophenyl)-N-isopropyl-isoquinoline-4-carboxamide]",0.135 µM
15,"Cc1cnc(CNC(=O)c2cnc(N)c3cc(-c4cccc(F)c4)ccc23)cn1 [Example 104, 1-amino-7-(3-fluorophenyl)-N-[(5-methylpyrazin-2-yl)methyl]isoquinoline-4-carboxamide]",0.0909 µM
16,"Cc1ncccc1NC(=O)c1cnc(N)c2cc(-c3cccc(F)c3)ccc12 [Example 105, 1-amino-7-(3-fluorophenyl)-N-(2-methyl-3-pyridyl) isoquinoline-4-carboxamide]",0.0377 µM
17,"Nc1ncc(C(=O)Nc2cccnc2)c2ccc(-c3cccc(F)c3)cc12 [Example 107, 1-amino-7-(3-fluorophenyl)-N-(3-pyridyl)isoquinoline-4-carboxamide]",0.0124 µM
18,"Nc1ncc(C(=O)NC2CC2)c2ccc(-c3cccc(F)c3)cc12 [Example 108, 1-amino-N-cyclopropyl-7-(3-fluorophenyl) isoquinoline-4-carboxamide]",0.0156 µM
19,"Nc1ncc(C(=O)NCCO)c2ccc(-c3cccc(F)c3)cc12 [Example 109, 1-amino-7-(3-fluorophenyl)-N-(2-hydroxyethyl) isoquinoline-4-carboxamide]",0.0774 µM
20,"Nc1ncc(C(=O)NCCC(=O)N2CCOCC2)c2ccc(-c3cccc(F)c3)cc12 [Example 110, 1-amino-7-(3-fluorophenyl)-N-(3-morpholino-3-oxo-propyl)isoquinoline-4-carboxamide]",0.403 µM
21,"N#CCNC(=O)c1cnc(N)c2cc(-c3cccc(F)c3)ccc12 [Example 111, 1-amino-N-(cyanomethyl)-7-(3-fluorophenyl) isoquinoline-4-carboxamide]",0.0441 µM
22,"Nc1ncc(C(=O)NC2CCOC2)c2ccc(-c3cccc(F)c3)cc12 (stereo not shown) [Example 112, 1-amino-7-(3-fluorophenyl)-N-tetrahydrofuran-3-yl-isoquinoline-4-carboxamide]",0.0731 µM
23,"Nc1ncc(C(=O)NC(CO)CO)c2ccc(-c3cccc(F)c3)cc12 [Example 114, 1-amino-7-(3-fluorophenyl)-N-[2-hydroxy-1-(hydroxy-methyl)ethyl]isoquinoline-4-carboxamide]",0.0386 µM
24,"Nc1ncc(C(=O)NC2COC2)c2ccc(-c3cccc(F)c3)cc12 [Example 115, 1-amino-7-(3-fluorophenyl)-N-(oxetan-3-yl)isoquinoline-4-carboxamide]",0.0454 µM
25,"Cc1cncc(NC(=O)c2cnc(N)c3cc(-c4cccc(F)c4)ccc23)c1 [Example 116, 1-amino-7-(3-fluorophenyl)-N-(5-methyl-3-pyridyl) isoquinoline-4-carboxamide]",0.114 µM
26,"Cc1ncc(NC(=O)c2cnc(N)c3cc(-c4cccc(F)c4)ccc23)cn1 [Example 117, 1-amino-7-(3-fluorophenyl)-N-(2-methylpyrimidin-5-yl)isoquinoline-4-carboxamide]",0.07 µM

# The remaining molecules from weak to strong by IC50, led by results:
row,IC50,SMILES
1,2.1 µM,"Nc1ncc(C(=O)O)c2ccc(-c3cccc(F)c3)cc12 [Example 123, 1-amino-7-(3-fluorophenyl) isoquinoline-4-carboxylic acid]"
2,0.95 µM,"CC(C)(CNC(=O)c1cnc(N)c2cc(-c3cccc(F)c3)ccc12)N1CCOCC1 [Example 88, 1-amino-7-(3-fluorophenyl)-N-(2-methyl-2-morpholino-propyl)isoquinoline-4-carboxamide]"
3,0.557 µM,"C[C@@H](NC(=O)c1cnc(N)c2cc(-c3cccc(F)c3)ccc12)C(N)=O [Example 84, 1-amino-N-[(1R)-2-amino-1-methyl-2-oxo-ethyl]-7-(3-fluorophenyl) isoquinoline-4-carboxamide]"
4,0.4 µM,"Nc1ncc(C(=O)NC2CNC2)c2ccc(-c3cccc(F)c3)cc12 [Example 124, 1-amino-N-(azetidin-3-yl)-7-(3-fluorophenyl) isoquinoline-4-carboxamide]"
5,0.363 µM,"C[C@H](NC(=O)c1cnc(N)c2cc(-c3cccc(F)c3)ccc12)C(N)=O [Example 85, 1-amino-N-[(1S)-2-amino-1-methyl-2-oxo-ethyl]-7-(3-fluorophenyl) isoquinoline-4-carboxamide]"
6,0.25 µM,"CC(=O)NCCNC(=O)c1cnc(N)c2cc(-c3cccc(F)c3)ccc12 [Example 80, N-(2-acetamidoethyl)-1-amino-7-(3-fluorophenyl) isoquinoline-4-carboxamide]"
7,0.217 µM,"CN1CCN(CCNC(=O)c2cnc(N)c3cc(-c4cccc(F)c4)ccc23)CC1 [Example 83, 1-amino-7-(3-fluorophenyl)-N-[2-(4-methylpiperazin-1-yl)ethyl]isoquinoline-4-carboxamide]"
8,0.115 µM,"NC(=O)CNC(=O)c1cnc(N)c2cc(-c3cccc(F)c3)ccc12 [Example 103, 1-amino-N-(2-amino-2-oxo-ethyl)-7-(3-fluorophenyl) isoquinoline-4-carboxamide]"
9,0.0996 µM,"CC(O)CNC(=O)c1cnc(N)c2cc(-c3cccc(F)c3)ccc12 (stereo not shown) [Example 119, 1-amino-7-(3-fluorophenyl)-N-(2-hydroxypropyl) isoquinoline-4-carboxamide]"
10,0.077 µM,"Nc1ncc(C(=O)NCc2cccnc2)c2ccc(-c3cccc(F)c3)cc12 [Example 94, 1-amino-7-(3-fluorophenyl)-N-(3-pyridylmethyl) isoquinoline-4-carboxamide]"
11,0.0459 µM,"Nc1ncc(C(=O)NC2CCCC2)c2ccc(-c3cccc(F)c3)cc12 [Example 98, 1-amino-N-cyclopentyl-7-(3-fluorophenyl) isoquinoline-4-carboxamide]"
12,0.0452 µM,"CNC(=O)c1nc(CNC(=O)c2cnc(N)c3cc(-c4cccc(F)c4)ccc23)no1 [Example 87, 3-[[[1-amino-7-(3-fluorophenyl)isoquinoline-4-carbonyl]amino]methyl]-N-methyl-1,2,4-oxadiazole-5-carboxamide]"
13,0.03 µM,"Nc1ncc(C(=O)NC2CCC2)c2ccc(-c3cccc(F)c3)cc12 [Example 97, 1-amino-N-cyclobutyl-7-(3-fluorophenyl) isoquinoline-4-carboxamide]"
14,0.0224 µM,"Nc1ncc(C(=O)Nc2ccncc2)c2ccc(-c3cccc(F)c3)cc12 [Example 106, 1-amino-7-(3-fluorophenyl)-N-(4-pyridyl)isoquinoline-4-carboxamide]"
